The results in this text go back to patent US20030134779A1, “Method and composition for treatment and/or prevention of antibiotic-resistant microorganism infections” (priority 2002, published 2003).

One assay concerns S. aureus ATCC 25923. Nature of the assay: Cell morphology by transmission electron microscopy. In kind it is cell-based, Staphylococcus aureus. On the procedure: Bacterial cells were grown overnight on MHA or MHB containing sub-MICs of penicillin G with or without LF or LFC. Microorganisms were prepared for transmission electron microscopy by fixation with glutaraldehyde followed by ferritin labelling. This method allows good- preservation of capsular material. Briefly, bacterial cells grown in the presence or absence of antibiotics were fixed in cacodylate buffer (0.1 M, pH 7.0) containing 5% (v/v) glutaraldehyde, for 2 h at 20° C. Fixed microorganims were suspended in cacodylate buffer and allowed to react with the polycationic ferritin (Sigma Chemicals, St-Louis, Mo.; final concentration 1.0 mg/ml) for 30 min at 20° C. The reaction was slowed down by 10-fold dilution with buffer, and the microorganisms were centrifuged and washed three times in cacodylate buffer. Bacterial cells were then immobilized in 4% (w/v) agar, washed 5 times in cacodylate buffer and post-fixed with 2% (w/v) osmium tetroxide for 2 h. Washings were repeated as above, and the samples dehydrated in a graded series of acetone washes. Samples were then washed twice in propylene oxide and embedded in Spurr low-viscosity resin. Thin sections were post-stained with uranyl acetate and lead citrate and examined with an electron microscope (Philips 201) at an accelerating voltage of 60 kV.

Assay [1] concerns β-lactamase (BlaZ) gene expression in S. aureus strain SHY97-4320. Kind of assay: BlaZ gene expression, real-time quantitative RT-PCR, and total RNA. In kind it is cell-based, Staphylococcus aureus. On the procedure:
Fresh MHB containing or not 8 μg/ml of penicillin G and/or 1 mg/ml of bovine LF (2×2 factorial design) was adjusted to an optical density at 540 nm of 0.04 with an overnight culture of S. aureus and then incubated at 37° C. with agitation (150 rpm). After 4 and 22-h of incubation, aliquots were removed to determine bacterial growth by viable count (colony forming unit per ml, cfu/ml), measuring the culture turbidity (OD540nm) with a spectrophotometer Philips PU and to measure β-lactamase activity in bacterial cells. Following culture under the same condition, bacterial cells were collected for RNA extraction.
Total bacterial RNA was prepared using the RNeasy minikit (Qiagen, Mississauga, ON, Canada). Washed bacteria were first treated with 50 μg/ml of lysostaphin (GramCracker, Ambion, Austin, Tex.) for 10 min at 37° C. and RNA was purified according to the manufacturer's protocol. Contaminating DNA was removed from total RNA by using 1 U of Rnase-free Dnase I (Gibco Life Technologies, Grand Island, N.Y.) in a 10 μl reaction mixture containing approximately 50 ng of total RNA per μl and 20mM Tris-HCl (pH 8.4), 2 mM MgCl2 and 50 mM KCl. The reaction mixture was incubated for 15 min at room temperature, and the Dnase I was inactivated by adding 1 μl of 25 mM EDTA to the mixture and incubating for 10 min at 65° C. before assessing quantity and purity. Amount of cellular RNA was then determined by measuring the OD260 nm and OD280 nm.
Real-Time fluorescence-based 5′ nuclease PCR which is a widely accepted method for measuring gene expression levels was used to quantify β-lactamase BlaZ RNA by RT-PCR on ABI Prism™ 7700 (TaqMan® ) sequence detector (PE Applied Biosystem, Foster City, Calif.). The forward primer, reverse.primer, and TaqMan probe for Real-Time RT-PCR amplification were designed with the PrimerExpress software (PE Applied Biosystem) to specifically amplify the. S. aureus BLAZ gene. Briefly, RNA (50 ng) was added to a 50 μl reaction mixture containing 25 μl of 2×RT-PCR One-Step Universal Master Mix, 1.25 μl of 40×MultiScribe and Rnase Inhibitor Mix, 4.5 μl of the forward primer (10 μM, 5′-[…]-3′, SEQ ID NO:3), 4.5 μl of the reverse primer (10 μM, 5′-[…]-3′, SEQ ID NO:4), and 1.25 μl of TaqMan probe (10 μM, 6FAM-[…]-TAMRA, SEQ ID NO:5). Reverse transcription with the recombinant Moloney Murine Leukemia Virus (M-MuLV) Reverse Transcriptase (0.25 U/μl) was conducted at 48° C. for 30 min. […] The cycle threshold value (CT), indicative of the quantity of target gene at which the fluorescence exceeds a pre-set threshold, was determined and compared to the CT of a standard curve containing known amounts of mRNA (1.1×10^2 to 1.1×10^9) from the BLAZ gene of S. aureus obtained by in vitro transcription. […]

Take `CC1(C)S[C@@H]2[C@H](NC(=O)Cc3ccccc3)C(=O)N2[C@H]1C(=O)O` [penicillin G, Penicillin G]: the cell morphology result in the assay with S. aureus ATCC 25923 (penicillin G 0.0078 μg/ml alone, 18-h) is reported as “induced formation of large symmetrically arranged pseudomulticellular staphylococci”; with S. aureus ATCC 25923 (penicillin G 0.0078 μg/ml with LF 9.1 μg/ml) it was “asymmetrically arranged pseudomulticellular staphylococci were formed”. Also, the “BlaZ total: total number of copies of BlaZ gene mRNA/ml of culture” value in assay [1] (LF 1 mg/ml and/or penicillin G) was 174.9 × 10^5 copies/ml of culture. Moreover, in assay [1] (LF 1 mg/ml and/or penicillin G), the “BlaZ: number of copies of BlaZ gene mRNA/50 ng of mRNA” value is reported as 22.9 × 10^4 copies/50 ng of mRNA. Besides, in assay [1] (adjusted for an OD540nm of 1.0, LF 1 mg/ml and/or penicillin G), the RNA is reported as 3.22 ± 0.49 :g/ml. Further, in assay [1] (penicillin G added to the growth medium, P<0.01), the “increase in the number of copies of the BlaZ mRNA per ml of culture” value turned out to be 28 fold.
